Measurements: BindingDB's records for doi:10.1016/j.bmc.2020.115327 (Punjabi University, 2020)

Biological target: Signal transducer and activator of transcription 3 (Homo sapiens, UniProt P40763)
Assay: Inhibition of STAT3 in human K562 cells assessed as reduction in STAT3 phosphorylation

Signal transducer and activator of transcription 3, sequence (P40763 whole entry): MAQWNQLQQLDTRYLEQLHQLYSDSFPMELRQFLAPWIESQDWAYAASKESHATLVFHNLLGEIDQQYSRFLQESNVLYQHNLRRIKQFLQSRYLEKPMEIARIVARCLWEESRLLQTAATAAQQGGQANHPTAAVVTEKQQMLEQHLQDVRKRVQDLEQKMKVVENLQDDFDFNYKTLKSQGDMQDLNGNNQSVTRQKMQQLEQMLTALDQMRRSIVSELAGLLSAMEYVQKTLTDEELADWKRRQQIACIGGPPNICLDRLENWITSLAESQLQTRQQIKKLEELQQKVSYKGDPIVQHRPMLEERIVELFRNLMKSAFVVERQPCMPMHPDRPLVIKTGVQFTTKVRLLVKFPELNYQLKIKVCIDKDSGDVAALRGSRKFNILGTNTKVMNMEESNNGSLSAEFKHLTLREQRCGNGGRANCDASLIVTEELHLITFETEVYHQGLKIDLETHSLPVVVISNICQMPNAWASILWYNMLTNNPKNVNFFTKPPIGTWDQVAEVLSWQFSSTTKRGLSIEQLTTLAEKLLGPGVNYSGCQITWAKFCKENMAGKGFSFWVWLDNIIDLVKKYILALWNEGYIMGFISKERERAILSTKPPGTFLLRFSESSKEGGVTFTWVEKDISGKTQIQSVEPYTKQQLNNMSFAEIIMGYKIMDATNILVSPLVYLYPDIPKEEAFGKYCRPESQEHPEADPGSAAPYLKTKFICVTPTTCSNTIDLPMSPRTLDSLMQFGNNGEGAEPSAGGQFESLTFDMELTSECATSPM

| Structure (SMILES) | IC50 |
| --- | --- |
| CCc1ccc(Nc2nc3cc(NC(=O)c4ccccc4)ccc3o2)cc1 | 5.8 µM |
| CCc1ccc(Nc2nc3cc(N)ccc3o2)cc1 | 18.9 µM |
